What was measured:
Format in all cases: in vivo
male (CFLP LATI) mice [1] = assay: Anoxic asphyxia (asphyxial anoxia), antihypoxic effect in mice; conditions: Mus musculus, po, read-out: ED50 asphyxial anoxia
Protocol: (§1) Male (CFLP LATI) mice weighing 24-26 g and male spontaneous hypertensive rats (SHR) weighing 160-180 g were used as test animals. The test compounds were administered orally in a volume of 10 ml/kg 1 hour before the test.
(§2) The mice were treated after 16 hours fasting with the oral dosage of the test compounds. 1 hour after the treatment the animals were placed to 100 ml sealed glasses and the survival time of the animals was measured. The groups consisting of 10 animals and treated with the test compounds were considered protected if the average survival time was by 30 percent longer than the survival of the group treated with placebo. From the percentage of the surviving animals the 50% effective dosage (ED50) was calculated by probit analysis.

[2] = test system: male spontaneous hypertensive rats (SHR); assay: Hypobaric hypoxia in SHR rats; conditions: Rattus norvegicus, po, 1 hour before the test, 22.66 kPa, protected = survival 30 percent longer, 95% fiducial limit on next line
Protocol: as §1
(§3) The rats were placed to a 6-liter exsiccator 1 hour after pretreatment to each exsiccator 2 rats were placed. The pressure was reduced in the exsiccator within 20 seconds to 22.66 kPa (170 Hgmm) and the survival time was measured from this time on until the last breathing movement. Animals which survived by 30 percent longer than the average survival of the control group were considered as protected. From the percentage of the protected animals the ED50 i.e. the 50% effective dosage was calculated by probit analysis with the pertaining 95% fiducial limit.

male (CFLP LATI) mice [3] = assay: Hypobaric hypoxia (HH), antihypoxic effect in mice; conditions: Mus musculus, po, read-out: ED50 hypobaric hypoxia
Protocol: as §1
Animals surviving by 100% longer than the average survival of the control group were considered as protected.

male (CFLP LATI) mice [4] = assay: Cytotoxic hypoxia (KCN), antihypoxic effect in mice; conditions: Mus musculus, po, read-out: ED50 cytotoxic hypoxia
[5] = test system: mice and spontaneous hypertensive rats; assay: Hypoxic models taken together (asphyxial anoxia, hypobaric hypoxia, cytotoxic hypoxia, hypobaric hypoxia SHR)
Protocol: as §1, §2
After 16 hours of fasting and 1 hour of pretreatment the animals were placed to a 6-liter exsiccator and the pressure was reduced within 20 seconds to 22.66 kPa (170 Hgmm), and from this time on the survival time was measured until the last breathing movement. Animals surviving by 100% longer than the average survival of the control group were considered as protected.
The animals were treated after 1 hour pretreatment with an i.v. dosage of 5 mg/kg potassium cyanide. The survival time was measured from the administration of potassium cyanide to the last breathing movement. The protected condition was determined according to the method described for anoxic asphyxia.
as §3
For testing the active ingredients various forms of hypoxia were used. In case of asphyxial anoxia the complete loss of the oxygen supply, at hypobaric hypoxia the reducing of the oxygen saturation condition of the haemoglobin and in case of cytotoxic hypoxia the blocking of the mytochondrial breathing enzime cause a functional disorganisation and necrosis of the cells, even death in otherwise healthy mice. The spontaneous hypertensive rats are more sensitive to the hypoxial influences than the normotensive animals as the survival chance of a person suffering from hypertension is also worse after suffering from hypoxial influences.

[6] = 1 hour before the test, mice, protected = survival 30 percent longer, probit analysis
[7] = 1 hour before the test, mice, 22.66 kPa, protected = survival 100% longer, 95% fiducial limit on next line
[8] = 1 hour before the test, mice, KCN 5 mg/kg i.v., 95% fiducial limit on next line

## OC(CCN1CC=C(c2ccccc2)CC1)c1ccc(Cc2ccc(Cl)cc2)cc1 (stereo not drawn) [Example 0207724]
Male (CFLP LATI) mice [1]; [6]
  ED50: 50 mg/kg
[2]
  ED50: 8.2 mg/kg
Male (CFLP LATI) mice [3]; [7]
  ED50: 27.5 mg/kg
Male (CFLP LATI) mice [4]; [8]
  ED50: 17.5 mg/kg

## NC(=O)CN1CCCC1=O [Piracetam, 2-oxo-1-pyrrolidinyl-acetic amide]
Male (CFLP LATI) mice [1]
  ED50: 100 mg/kg
[5]; antihypoxic effect on two models
  dosage relative to that of vincamine: 5-10 times
[5]; number of models on which the effect could be proved
  antihypoxic effect: could be proved on two models
Male (CFLP LATI) mice [3]
  ED50: 100 mg/kg
Male (CFLP LATI) mice [4]
  ED50: 132 mg/kg

## CC[C@]12CCCN3CCc4c(n(c5ccccc45)[C@@](O)(C(=O)OC)C1)[C@@H]32 [Vincamin, (+)-14β-hydroxy-14α-methoxy-carbonyl-14,15-dihydro-eburnamenine]
Male (CFLP LATI) mice [1]; [6]
  ED50: 51.1 mg/kg
[5]; all hypoxic models, in words
  effect in all hypoxic models used: effective
  survival time of the animals: prolonged
[2]
  ED50: 27.9 mg/kg
Male (CFLP LATI) mice [3]; [7]
  ED50: 60.7 mg/kg
Male (CFLP LATI) mice [4]; [8]
  ED50: 27 mg/kg

Reference: US5225416A, “1,2,3,6-tetrahydropyridine derivatives useful for improving cerebral blood circulation” (Richter Gedeon Vegyeszeti Termekek Gyara Rt., priority 1990, dated 1993)
